Assay results from US20210244686A1, “Novel Systems And Methods For The Therapeutic Use of Cannabinoids or Cannabinoid Analogs to Increase The Lipid Order of Cholesterol Containing Cell Membranes” (The Regents of the University of Colorado a body corporate, priority 2018, published 2021).

Tests used:
[1] = system: SKNBE2 neuroblastoma cells; assay: Flow cytometric analysis of rhodamine-glibenclamide staining in live cells; format: cell-based, human; settings: live cells, flow cytometry
[2] = system: endoplasmic reticulum in SKNBE2 and HaCaT keratinocyte cells; assay: Confocal microscopy of rhodamine-glibenclamide staining, ER structure; format: cell-based, human; settings: for alteration of the structure of the endoplasmic reticulum: SKNBE2 and HaCaT keratinocyte cells
Description: FIG. 16. Rhodamine-glibenclamide staining in live cells is visualized by confocal microscopy in live cells. ER structure is perturbed after 2 hours of exposure to CBD and o-1602, but not for o-1821 exposure.

HEK293T cells = assay: Live cell microscopy apoptosis assay (caspase 3/7 dye); format: cell-based; settings: for apoptotic response to combinatorial 25-hydroxy cholesterol/CBD treatment: 25-hydroxy cholesterol 15 μg/ml, CBD 20 μM, U18666A 10 μM or VULM 1457 5 μM, 24 hours
Description: In order to gain further insight into the sensitivity of CBD treated cells to 25-hydroxy cholesterol, the present inventors repeated the apoptosis assay in SK-N-BE(2) and HEK293T cells with combinatorial 25-hydroxy cholesterol/CBD stimulation using sublethal doses of 25-hydroxy cholesterol (15 μg/ml) and CBD (20 μM) in the presence or absence of either the chemical inhibitor of cholesterol transport (U18666A, 10 μM) or cholesterol storage (VULM 1457, 5 μM).
FRAP experiments reveal that DHA and CBD have opposing effects on the lateral diffusion of fluorescently labelled cholesterol in synthetic membranes. Although this implies that CBD increases lipid order and that DHA decreases lipid order, it remains unclear how relevant these biophysical effects of CBD and DHA are to cellular physiology. As a result, the present inventors sought to determine whether CBD and DHA have opposing effects on cells. To this end, the present inventors repeated the live cell apoptosis assays in cells exposed to increasing doses of DHA to determine how DHA affects cell death.

SK-N-BE(2) cells = assay: as above; settings: for apoptotic response to combinatorial 25-hydroxy cholesterol/CBD treatment: 25-hydroxy cholesterol 15 μg/ml, CBD 20 μM, U18666A 10 μM or VULM 1457 5 μM, 24 hours
Description: To accurately measure cellular apoptosis over time, the present inventors performed live cell microscopy experiments with cells loaded with both DNA and caspase 3/7 dyes, which enables continuous and precise quantification of apoptosis at the single cell level.
Cell viability for SK-N-BE(2) cells was conducted using a fluorometric cell viability assay using Resazurin (PromoKine) according to the manufacturer's instructions. […] Dyes were added at the time of seeding, 18-24 hours prior to performing experiments.
Experiments were performed using an ImageXpress MicroXL microscope and a 10× objective, where images were acquired for each well at the indicated time-points using DAPI and FITC filter sets. […] Percent apoptotic cells was calculated from the sum of apoptotic cell pixels divided by the sum of all cell pixels for each field of view.

[3] = FRAP of NBD-cholesterol in synthetic membrane monolayers; settings: DHA 20 μM plus CBD
Description: CBD's ability to affect cholesterol orientation in both synthetic and cell derived ER membranes implies that CBD may contribute to increased lipid order. The ability of cholesterol oxidase assays to reveal alterations in lipid order has been previously reported in studies noting that cholesterol oxidase can preferentially target caveolar domains, which are ordered lipid domains. Another hallmark of lipid order is a decrease in lateral diffusion of lipids. As a result, the present inventors aimed to measure CBD's ability to perturb the lateral diffusion of fluorescently labelled cholesterol (NBD-cholesterol) in synthetic membranes. The present inventors deposited PC SUVs containing 20% moles of cholesterol and 2% moles NBD-cholesterol on glass-bottom multi-well imaging plates, followed by ultra-sonification to construct fluorescently labelled membrane monolayers. Using these monolayers and confocal microscopy, the inventor's performed fluorescence recovery after photobleaching (FRAP) experiments to measure the kinetics of recovery of fluorescent cholesterol. […] This effect of CBD on lateral diffusion could be rescued with simultaneous treatment with the lipid disordering agent DHA (FIGS. 6G, I). There are two proposed models for how DHA affects cholesterol in membranes. […]

[4] = DHA 75 μM with MBCD 300 μM or CBD 6.25 μM

CC(C)c1c(C(=O)Nc2ccccc2)c(-c2ccccc2)c(-c2ccc(F)cc2)n1CC[C@@H](O)C[C@@H](O)CC(=O)O [Atorvastatin]
rhodamine-glibenclamide fluorescence [1]: Enhanced fluorescence

C=C(C)[C@@H]1CCC(C)=C[C@H]1c1c(O)cc(CCCCC)c(C(=O)O)c1O [Cannabidiolic Acid, cannabidiolic acid]
rhodamine-glibenclamide fluorescence [1]: Enhanced fluorescence
alteration of the structure of the endoplasmic reticulum [2]: not

CC/C=C\C/C=C\C/C=C\C/C=C\C/C=C\C/C=C\CCC(=O)O [DHA]
apoptosis (HEK293T cells; relatively low doses of DHA): induce apoptosis
apoptosis (SK-N-BE(2) cells; relatively low doses of DHA): induce apoptosis
effect of CBD on lateral diffusion with simultaneous DHA [3]: rescued

O=C1[C@H](CC[C@H](O)c2ccc(F)cc2)[C@@H](c2ccc(O)cc2)N1c1ccc(F)cc1 [Ezetimibe]
rhodamine-glibenclamide fluorescence [1]: Enhanced fluorescence

CCCCCCC(C)(C)c1cc(OC)c(C2C=C(CO)C3CC2C3(C)C)c(OC)c1 (stereo not drawn) [HU-308, 4-[4-(1,1-dimethylheptyl)-2,6-dimethoxyphenyl]-6,6-dimethyl-bicyclo[3.1.1]hept-2-ene-2-methanol]
rhodamine-glibenclamide fluorescence [1]: Enhanced fluorescence

CCN(CC)CCO[C@H]1CC[C@@]2(C)C(=CC[C@@H]3[C@@H]2CC[C@]2(C)C(=O)CC[C@@H]32)C1 [U18666A]
apoptotic response to combinatorial 25-hydroxy cholesterol/CBD treatment (HEK293T cells): restore the apoptotic response
apoptotic response to combinatorial 25-hydroxy cholesterol/CBD treatment (SK-N-BE(2) cells): restore the apoptotic response

CC(C)c1cccc(C(C)C)c1NC(=O)Nc1ccc(Sc2ccc([N+](=O)[O-])cc2)cc1 [VULM 1457]
apoptotic response to combinatorial 25-hydroxy cholesterol/CBD treatment (HEK293T cells): restore the apoptotic response
apoptotic response to combinatorial 25-hydroxy cholesterol/CBD treatment (SK-N-BE(2) cells): restore the apoptotic response

C=C(C)[C@@H]1CCC(C)=C[C@H]1c1c(O)cc(O)cc1CCCCC [abnormal CBD, 4-[(1R,6R)-3-Methyl-6-(1-methylethenyl)-2-cyclohexen-1-yl]-5-pentyl-1,3-benzenediol]
rhodamine-glibenclamide fluorescence [1]: Enhanced fluorescence
alteration of the structure of the endoplasmic reticulum [2]: not

C=C(C)[C@@H]1CCC(C)=C[C@H]1c1c(C)cc(O)cc1O [o-1602, 5-methyl-4-[(1R,6R)-3-methyl-6-(1-methylethenyl)-2-cyclohexen-1-yl]-1,3-benzenediol]
rhodamine-glibenclamide fluorescence [1]: Enhanced fluorescence
alteration of the structure of the endoplasmic reticulum [2]: observed
ER structure ([2]; after 2 hours of exposure, live cells): perturbed

C[C@H](CO)NC(=O)CCC/C=C\C/C=C\C/C=C\C/C=C\C(C)(C)CCCCC#N [o-1821]
rhodamine-glibenclamide fluorescence [1]: Enhanced fluorescence
alteration of the structure of the endoplasmic reticulum [2]: not

methyl beta cyclodextrin [MBCD]
effect on DHA induced apoptosis (HEK293T cells; [4]): delay apoptosis
effect on DHA induced apoptosis (SK-N-BE(2) cells; [4]): completely cancel apoptosis
